These results are taken from ChEMBL document CHEMBL4627407, “Identification of a Potent Oridonin Analogue for Treatment of Triple-Negative Breast Cancer” (J Med Chem, 2020).

For series [1], the system named is DU-4475. In words: Antiproliferative activity against human DU4475 cells after 72 hrs by MTT assay. The settings on record: DU-4475, 72 h. The format is functional, cell-based.
The test system of series [2] is MDA-MB-468. In words: Antiproliferative activity against human MDA-MB-468 cells after 72 hrs by MTT assay. The settings on record: MDA-MB-468, 72 h. The format is functional, cell-based.
Series [3] has as its system HCC1806. Kind of series: Potency index, ratio of oridonin IC50 to compound IC50 for antiproliferative activity against human HCC1806 cells after 72 hrs by MTT assay. In kind it is functional.
In series [4] the test system is HCC1806. In words: Antiproliferative activity against human HCC1806 cells after 72 hrs by MTT assay. The format is functional, cell-based. The settings on record: HCC1806, 72 h.
Series [5] has as its system DU-4475. In words: Potency index, ratio of oridonin IC50 to compound IC50 for antiproliferative activity against human DU4475 cells after 72 hrs by MTT assay. The format is functional.
Series [6] deals with MDA-MB-231. Kind of series: Potency index, ratio of oridonin IC50 to compound IC50 for antiproliferative activity against human MDA-MB-231 cells after 72 hrs by MTT assay. The format is functional.
The subject of series [7] is MDA-MB-468. Kind of series: Potency index, ratio of oridonin IC50 to compound IC50 for antiproliferative activity against human MDA-MB-468 cells after 72 hrs by MTT assay. The format is functional.
Series [8] deals with MDA-MB-231. Kind of series: Antiproliferative activity against human MDA-MB-231 cells after 72 hrs by MTT assay. The settings on record: MDA-MB-231, 72 h. In kind it is functional, cell-based.
A further series deals with SK-BR-3. In words: Antiproliferative activity against human SK-BR-3 cells after 72 hrs by MTT assay. In kind it is functional, cell-based. The conditions noted are these: SK-BR-3, 72 h.
For a further series, the system named is HCC1937. In words: Antiproliferative activity against human HCC1937 cells after 72 hrs by MTT assay. In kind it is functional, cell-based. The settings on record: HCC1937, 72 h.
The test system of the next series is MDA-MB-453. Kind of series: Antiproliferative activity against human MDA-MB-453 cells after 72 hrs by MTT assay. The format is functional, cell-based. The settings on record: MDA-MB-453, 72 h.
The subject of the next series is T47D. In words: Antiproliferative activity against human T47D cells after 72 hrs by MTT assay. In kind it is functional, cell-based.
A further series has as its system NCI/ADR-RES. Kind of series: Antiproliferative activity against human MCF7/ADR cells after 72 hrs by MTT assay. The format is functional, cell-based.
Series [9] concerns HCC1806. Kind of series: Antitumor activity against human HCC1806 cells in ICR mouse assessed as increase in apoptosis in tumor at 6 mg/kg, iv administered once per 2 days for 23 consecutive days by TUNEL based immunohistochemical analysis. In kind it is functional, organism-based.
Series [10] relates to HCC1806. Kind of series: Antitumor activity against human HCC1806 cells in ICR mouse assessed as increase in apoptosis in tumor at 6 mg/kg, iv administered once per 2 days for 23 consecutive days by Ki67 staining-based immunohistochemical analysis. In kind it is functional, organism-based.
For series [11], the system named is HCC1806. In words: Antitumor activity against human HCC1806 cells harboring luciferase gene xenografted in ICR mouse assessed as shrunken tumor tissue at 6 mg/kg, iv administered once per 2 days for 21 consecutive days and measured once every week. In kind it is functional, organism-based.
Series [12] has as its system HCC1806. In words: Antitumor activity against human HCC1806 cells in ICR mouse assessed as tumor shrinkage at 6 mg/kg, iv administered once per 2 days for 23 consecutive days by Ki67 staining-based immunohistochemical analysis. In kind it is functional, organism-based.
For series [13], the system named is HCC1806. Kind of series: Antitumor activity against human HCC1806 cells in ICR mouse assessed as reduction in tumor weight at 6 mg/kg, iv administered once per 2 days for 23 consecutive days and measured every 2 days relative to control. The format is functional. Also on record: scale not given: the % may be the effect or the level left.
Series [14] can be described thus: Toxicity in ICR mouse assessed as reduction in body weight at 6 mg/kg, iv administered once per 2 days for 23 consecutive days and measured every 2 days. The format is organism-based. The conditions noted are these: in vivo, 48 h.
In series [15] the test system is HCC1806. In words: Antitumor activity against human HCC1806 cells in ICR mouse assessed as increase in apoptosis in tumor at 6 mg/kg, iv administered once per 2 days for 23 consecutive days by hematoxylin and eosin staining based histopathological assay. In kind it is functional, organism-based.
The test system of series [16] is HCC1806. Kind of series: Antitumor activity against human HCC1806 cells in ICR mouse assessed as tumor shrinkage at 6 mg/kg, iv administered once per 2 days for 23 consecutive days by TUNEL based immunohistochemical analysis. The format is functional, organism-based.
Series [17] relates to HCC1806. In words: Antitumor activity against human HCC1806 cells in ICR mouse assessed as tumor shrinkage at 6 mg/kg, iv administered once per 2 days for 23 consecutive days by hematoxylin and eosin staining based histopathological assay. In kind it is functional, organism-based.

Active and inactive are the calls of the source. The rule behind the calls is not given here.

Regarding `C=C1C(=O)[C@]23[C@H](O)[C@H]1CC[C@H]2[C@]12CCCC(C)(C)[C@H]1[C@H](O)[C@@]3(O)OC2`, the IC50 in the series with DU-4475 [1] amounted to 2.36 µM; in the series on MDA-MB-468 [2] it was 2.24 µM; in the series on HCC1806 [4], 2.39 µM; in the series with MDA-MB-231 [8], 2.96 µM. Besides, the “Ratio IC50” value in the series on HCC1806 [3], with DU-4475 [5], in the series with MDA-MB-231 [6] and in the series with MDA-MB-468 [7] was 6 - 12 in each case.

Consider `C=C1C(=O)[C@]23[C@H](O)[C@H]1CC[C@H]2[C@@]12CO[C@]3(O)[C@@H](O)[C@@H]1C(C)(C)CC[C@@H]2O` [ORIDONIN], for which the IC50 with DU-4475 [1] was 16.9 µM; in the series with MDA-MB-468 [2], 17.3 µM; in the series on HCC1806 [4] it was 21.7 µM; in the series with SK-BR-3, 8.49 µM; in the series with HCC1937, 8.27 µM; in the series on MDA-MB-453, 6.67 µM. For the same compound, the half-maximal inhibitory concentration (IC50) was 7.56 µM in the series on T47D, 26.2 µM in the series on NCI/ADR-RES and 17.9 µM in the series on MDA-MB-231 [8].

Take `C=C1C(=O)[C@]23[C@H](O)[C@H]1CC[C@H]2[C@]12C=CCC(C)(C)[C@H]1[C@H](O)[C@@]3(O)OC2`: the half-maximal inhibitory concentration (IC50) came to 1.61 µM with DU-4475 [1], 1.44 µM with MDA-MB-468 [2], 2.35 µM in the series on HCC1806 [4] and 2.33 µM in the series on MDA-MB-231 [8]. Further, the “Ratio IC50” value with HCC1806 [3], with DU-4475 [5], in the series with MDA-MB-231 [6] and in the series with MDA-MB-468 [7] was 6 - 12 in each case.

Regarding `C=C1C(=O)[C@@]23C(=O)[C@@H]4OC[C@]5(C=CCC(C)(C)[C@@H]45)[C@@H]2CC[C@@H]1[C@H]3O`, the concentration for half-maximal inhibition (IC50) in the series on DU-4475 [1] was 0.92 µM; in the series with MDA-MB-468 [2], 0.99 µM; in the series on HCC1806 [4] it was 0.97 µM; with MDA-MB-231 [8], 1.3 µM.

Consider `C=C1C(=O)[C@@]23C(=O)[C@@H]4OC[C@]5(C=CCC(C)(C)[C@@H]45)[C@@H]2CC[C@@H]1[C@H]3OC(=O)/C=C/c1ccc2ccccc2c1`, for which the IC50 in the series on DU-4475 [1] was found to be 2 µM; with MDA-MB-468 [2], 2.25 µM; with HCC1806 [4] it was 1.78 µM; with MDA-MB-231 [8], 1.47 µM.

On to `C=C1C(=O)[C@@]23C(=O)[C@@H]4OC[C@]5(C=CCC(C)(C)[C@@H]45)[C@@H]2CC[C@@H]1[C@H]3OC(=O)/C=C/c1ccccn1`, for which the 50% inhibitory concentration (IC50) stood at 0.47 µM in the series with DU-4475 [1], 1.08 µM in the series on MDA-MB-468 [2], 0.6 µM in the series with HCC1806 [4] and 1.45 µM in the series with MDA-MB-231 [8].

For `C=C1C(=O)[C@@]23C(=O)[C@@H]4OC[C@]5(C=CCC(C)(C)[C@@H]45)[C@@H]2CC[C@@H]1[C@H]3OC(=O)/C=C/c1ccncc1F`, the concentration for half-maximal inhibition (IC50) is 1.1 µM in the series with DU-4475 [1], 1.04 µM in the series with MDA-MB-468 [2], 1.14 µM in the series with HCC1806 [4] and 0.85 µM in the series on MDA-MB-231 [8].

In the case of `C=C1C(=O)[C@@]23C(=O)[C@@H]4OC[C@]5(C=CCC(C)(C)[C@@H]45)[C@@H]2CC[C@@H]1[C@H]3OC(=O)C1CC1`, the IC50 with DU-4475 [1] amounted to 1.06 µM; in the series on MDA-MB-468 [2], 0.99 µM; with HCC1806 [4], 1.73 µM; with MDA-MB-231 [8], 0.76 µM.

Regarding `C=C1C(=O)[C@@]23C(=O)[C@@H]4OC[C@]5(C=CCC(C)(C)[C@@H]45)[C@@H]2CC[C@@H]1[C@H]3OC(=O)c1ccc(Cl)cc1`, the half-inhibitory concentration (IC50) in the series with DU-4475 [1] was 1.95 µM; in the series on MDA-MB-468 [2], 1.88 µM; in the series with HCC1806 [4], 1.93 µM; in the series on MDA-MB-231 [8] it was 1.39 µM.

`C=C1C(=O)[C@@]23C(=O)[C@@H]4OC[C@]5(C=CCC(C)(C)[C@@H]45)[C@@H]2CC[C@@H]1[C@H]3OC(=O)C1CCCCC1`: the half-maximal inhibitory concentration (IC50) in the series with DU-4475 [1] was determined as 2.14 µM; in the series on MDA-MB-468 [2], 2.4 µM; in the series on HCC1806 [4], 2.58 µM; in the series on MDA-MB-231 [8] it was 1.6 µM.

On to `CC(=O)O[C@H]1C(=O)[C@@]2(C)[C@H]([C@H](OC(=O)c3ccccc3)[C@]3(O)C[C@H](OC(=O)[C@H](O)[C@@H](NC(=O)c4ccccc4)c4ccccc4)C(C)=C1C3(C)C)[C@]1(OC(C)=O)CO[C@@H]1C[C@@H]2O` [PACLITAXEL], for which the result in the series on HCC1806 [9], with HCC1806 [10], in the series on HCC1806 [11], in the series on HCC1806 [12], with HCC1806 [15] and in the series on HCC1806 [16] was Active. For the same compound, the outcome in the series with HCC1806 [17] was Active. Further, the Activity is on record as 66% in the series on HCC1806 [13] and “Toxic” in [14].

On to `C=C1C(=O)[C@@]23C(=O)[C@@H]4OC[C@]5(C=CCC(C)(C)[C@@H]45)[C@@H]2CC[C@@H]1[C@H]3OC(C)=O`, for which the IC50 with DU-4475 [1] came to 0.75 µM; in the series with MDA-MB-468 [2], 0.79 µM; in the series on HCC1806 [4], 1 µM; with MDA-MB-231 [8], 0.96 µM.
